Where a name gives a salt, the structure may show the parent alone. Values belong to the compound of their own block, whether it stands above or below them.
Tests used:
[1] = DPPH free radical-scavenging/antioxidant assay; type: biochemical; settings: 50 μM DPPH in 80% methanol; 24 h time point; read-out: EC50 (concentration at which a compound reduces by 50% the peak absorbance of DPPH at 520 nm)
Method: Nitrone compounds of the present invention were tested for their free-radical scavenging/antioxidant activity in an in vitro assay that is accepted by those skilled in the art as a model for conditions involving the generation of free radicals. The assay is based on a reaction between a free-radical donor, 2,2-diphenyl-1-picrylhydrazyl (DPPH), and a radical scavenger/antioxidant to be tested for free-radical scavenging activity. Upon donation of the free-radical electron to the purported radical scavenger, the peak visible absorbance of DPPH (515-520 nm) decreases so that optical density readings at this part of the visual spectrum reflect the progression of the following reaction:
where AH is a hypothetical radical scavenger/antioxidant. The assay is based on a protocol originally detailed in Brand-Williams, W. et al., 1995, Use of a Free Radical Method to Evaluate Antioxidant Activity, Lebensm. Wiss. Technol., 28:25-30, with further modifications described in L. R. Fukumoto and G. Mazza, 2000, Assessing Antioxidant and Prooxidant Activities of Phenolic Compounds, J. Agric. Food Chem., 48:3597-3604.
The antioxidant assay was performed using Perkin-Elmer 96-well, clear-bottom, black-wall plates (ordered from E & K Scientific Products) and a Tecan Safire absorbance plate reader. The positive controls were Trolox (6-hydroxy-2,5,7,8-tetramethylchromane-2-carboxylic acid, Sigma-Aldrich), BHA (2(3)-tert-butylhydroquinone monomethyl ether, Sigma-Aldrich), PBN (C-(phenyl)-N-(tert-butyl)nitrone, Sigma-Aldrich) and S-PBN (C-(2-sulfophenyl)-N-(tert-butyl)nitrone, sodium salt, prepared according to E. G. Janzen and R. V. Shetty, 1979, Tetrahedron Lett., 35: 3229-32), and the negative control (i.e., vehicle) was DMSO. In brief, 2 μL of 100× DMSO stock of the desired final concentration of each control or nitrone compound to be tested in the same batch was added to a separate well. To each well was then added 198 μL of a freshly made 50 μM DPPH (Sigma-Aldrich) solution in 80% methanol using a multi-channel pipette. The absorbance was immediately read on the plate reader at 520 nm and thereafter read periodically to assess kinetics until all reactions reached completion (i.e., steady state). Since the steady-state point was 24 h, the assay results are shown from the 24 h time point. The absorbance at 520 nm (OD) was plotted versus the concentrations of the controls and nitrone compounds to assess dose-response and interpolate the EC50 values of the controls and test compounds.

[2] = Pharmacokinetic evaluation following intravenous and oral administration in rats; type: in vivo; settings: male, Sprague-Dawley; for Cmax / Tmax / bioavailability: 5 mg/kg; for Cmax: rat plasma; for Cmax / Tmax: oral gavage, 2 mg/mL at 2.5 mL/kg; for clearance / Vd / Tmax / bioavailability / half-life: plasma, rat; for clearance / Vd / half-life: 1 mg/kg; for clearance / Vd: intravenous administration, 1 mg/mL at 1.0 mL/kg; for clearance: read-out: CI (clearance) (converted); for Vd: read-out: Vd (volume of distribution); for bioavailability: po 2 mg/mL at 2.5 mL/kg vs iv 1 mg/mL at 1.0 mL/kg, dose-normalized, read-out: F (%) oral bioavailability; for half-life: intravenous, read-out: T1/2 elimination half life (converted)
Method: Male Sprague-Dawley rats were given at least 24 hours acclimation before experiment initiation. During acclimation period, all animals received food and water ad libitum. However, food (not water) was removed from the animal's cages up to 12 hours before initiation of the experiment. During the first 4 hours of experimentation, the animals received only water ad libitum. Two to three animals for iv and three animals for oral administration were tested. For iv formulation nitrone compounds of this invention were dissolved (1 mg/mL) in a mixture of 5% dimethyl acetamide (v/v), 0 to 4% Tween 80 (v/v), 10 to 40% PEG 400 (v/v) and the rest percentage of water (v/v). For oral formulation nitrone compounds of this invention were dissolved (2 mg/mL) in a mixture of 4% of 10% Tween in water and 96% of 0.5% carboxymethyl cellulose (medium viscosity) in water; or 4% of 10% Tween in water, 48% of 0.5% carboxymethyl cellulose (medium viscosity) in water, and 48% of 0.5% Hydroxypropyl Methylcellulose/0.2% Sodium Lauryl Sulfate in water. These formulations were stored at 5° C. until the experiment. Formulations were then stir-mixed at least half an hour before dosing. Exactly 200 μL of each left-over formulation was diluted with CH3CN/H2O for concentration analysis. The animals were weighed before dosing. The body weight was used to calculate the true dose for each animal:
IV dosing: • Dose volume (mL)=1.0 mL/kg The intravenous dose was administered through the jugular vein catheter or tail vein in less than 1 minute.
PO dosing: • Dose volume (mL)=2.5 mL/kg The oral dose was administered by oral gavage.
For IV dosing, blood samples were collected (using a pre-heparinized syringe) via the carotid artery or jugular vein catheter at t=2, 5, 15, 30, 60, 120, 180, 360, and 480 minutes post dosing. For PO dosing, blood samples were collected (using a pre-heparinized syringe) via the carotid artery or jugular vein catheter before dosing and at t=5, 15, 30, 60, 120, 180, 360, and 480 minutes post dosing. For some nitrone compounds a 1440 minutes (24 hours) sample was also taken for both IV and PO administrations. About 250 μL of blood was obtained at each time point from the animals. Equal volumes of 0.9% normal saline were replaced to prevent dehydration. The whole blood samples were maintained on ice until centrifugation. Blood samples were then centrifuged at 14,000 rpm for 10 minutes at 4° C. and the upper plasma layer transferred into a clean vial and stored at −80° C. The resulting plasma samples were then analyzed by mass spectroscopy using standard methods.
All the samples from above assays were analyzed on a PE-Sciex API 3000 triple quadrupole with a Turbo Ion Spray source. Nitrone compounds of this invention were separated from the matrix via a linear gradient reverse-phase chromatography using a C18 column, such as Thermo BDS Hypersil C18 (100×4.6 mm, 5 micron particle, 120A pore size). The mobile Phases were:
Nitrone compounds were detected by the mass spectrometer in the positive ion multiple reaction monitoring mode (MRM). For quantitative analysis, a standard curve was prepared by spiking a stock solution of the nitrone compound to the appropriate matrix to achieve a quantitation curve range and analyzed the standards in the same manner as the samples.
Pharmacokinetic parameters of the aryl nitrone compounds were determined by a noncompartmental analysis using WinNonlin-Pro (Version 4.1, Pharsight Corporation). Average and standard deviation of the parameters were calculated using standard formulas in Microsoft Excel.

Compound: CC(C)(C)/[N+]([O-])=C/c1ccc(S(=O)(=O)Nc2ccc(F)cc2)cc1 [Compound 25, N-(tert-Butyl)-C-[4-(4-fluoro-phenylsulfamoyl)phenyl]nitrone]
- Cmax [2]: 10 ng/mL
- clearance [2]: 29.3 mL/min/kg
- Vd [2]: 1.12 L/kg
- Tmax [2]: 15 min
- bioavailability [2]: 0.85%
- half-life [2]: 25.8 min
- EC50 [1]: > 1000 µM

Compound: COC(=O)c1[nH]c2ccccc2c1/C=[N+](\[O-])C1CCCCC1 [Compound 78, N-Cyclohexyl-C-[2-(methoxycarbonyl)-1H-indol-3-yl]nitrone]
- EC50 [1]: > 1000 µM

Compound: CC(C)(C)/[N+]([O-])=C/c1ccc(S(=O)(=O)N2CCCCC2)cc1 [Compound 28, N-(tert-Butyl)-C-[4-(piperidine-1-sulfonyl)phenyl]nitrone]
- Cmax [2]: 134 ng/mL
- clearance [2]: 19 mL/min/kg
- Vd [2]: 19.9 L/kg
- Tmax [2]: 64.8 min
- bioavailability [2]: 13.8%
- half-life [2]: 782 min
- EC50 [1]: > 1000 µM

Compound: COc1cc(/C=[N+](\[O-])Cc2ccccc2)c(C(=O)O)c(OC)c1 [Compound 12, N-Benzyl-C-(2-carboxy-3,5-dimethoxyphenyl)nitrone]
- EC50 [1]: 10 to 100 µM

Compound: 2(3)-tert-butylhydroquinone monomethyl ether [BHA, reference compound]
- EC50 [1]: < 10 µM

Compound: CN1CCN(S(=O)(=O)c2ccc(/C=[N+](\[O-])C(C)(C)C)cc2)CC1 [Compound 22, N-(tert-Butyl)-C-[4-(4-methyl-piperazine-1-sulfonyl)phenyl]nitrone]
- Cmax [2]: 703 ng/mL
- clearance [2]: 36.8 mL/min/kg
- Vd [2]: 1.83 L/kg
- Tmax [2]: 14.4 min
- bioavailability [2]: 15.6%
- half-life [2]: 34.2 min
- EC50 [1]: > 1000 µM

Compound: COC(=O)c1[nH]c2ccccc2c1/C=[N+](\[O-])Cc1ccccc1 [Compound 79, N-Benzyl-C[2-(methoxycarbonyl)-1H-indol-3-yl]nitrone]
- EC50 [1]: > 1000 µM

Compound: COC(=O)c1c(/C=[N+](\[O-])Cc2ccccc2)cc(OC)cc1OC [Compound 6, N-Benzyl-C-[2-(methoxycarbonyl)-3,5-dimethoxyphenyl]-nitrone]
- EC50 [1]: 100 to 500 µM

Compound: COC(=O)c1c(/C=[N+](\[O-])C(C)(C)C)cc(OC)cc1OC [Compound 4, N-(tert-Butyl)-C-[2-(methoxycarbonyl)-3,5-dimethoxyphenyl]-nitrone]
- EC50 [1]: 100 to 500 µM

Compound: CC(C)(C)/[N+]([O-])=C/c1ccc(S(=O)(=O)N2CCCC2)cc1 [Compound 29, N-(tert-Butyl)-C-[4-(pyrrolidine-1-sulfonyl)phenyl]nitrone]
- Cmax [2]: 114 ng/mL
- clearance [2]: 38 mL/min/kg
- Vd [2]: 0.97 L/kg
- Tmax [2]: 11.4 min
- bioavailability [2]: 4.3%
- half-life [2]: 17.4 min
- EC50 [1]: > 1000 µM

Compound: CC(C)(C)[N+]([O-])=Cc1ccccc1S(=O)(=O)O [SPBN, C-(2-sulfophenyl)-N-(tert-butyl)nitrone, sodium salt, reference compound]
- EC50 [1]: > 1000 µM

Continued, values first:

- EC50 [1]: 100 to 500 µM
Compound: CC(C)(C)/[N+]([O-])=C/c1ccccc1C(=O)O [Compound 7, N-(tert-Butyl)-C-(2-carboxyphenyl)nitrone]

- EC50 [1]: > 1000 µM
Compound: CC(C)(C)[N+]([O-])=Cc1ccccc1 [PBN, C-(phenyl)-N-(tert-butyl)nitrone, reference compound]

- EC50 [1]: 500 to 1000 µM
Compound: COC(=O)c1ccccc1/C=[N+](\[O-])Cc1ccccc1 [Compound 3, N-Benzyl-C-[2-(methoxycarbonyl)phenyl]nitrone]

- EC50 [1]: 500 to 1000 µM
Compound: COc1cc(/C=[N+](\[O-])C(C)(C)C)c(C(=O)O)c(OC)c1 [Compound 10, N-(tert-Butyl)-C-(2-carboxy-3,5-dimethoxyphenyl)nitrone]

- EC50 [1]: > 1000 µM
Compound: COC(=O)c1[nH]c2ccccc2c1/C=[N+](\[O-])C(C)(C)C [Compound 77, N-(tert-Butyl)-C-[2-(methoxycarbonyl)-1H-indol-3-yl]nitrone]

- Cmax [2]: 198 ng/mL
- clearance [2]: 59 mL/min/kg
- Vd [2]: 2.58 L/kg
- Tmax [2]: 12 min
- bioavailability [2]: 7.19%
- half-life [2]: 31.2 min
- EC50 [1]: > 1000 µM
Compound: CCNS(=O)(=O)c1ccc(/C=[N+](\[O-])C(C)(C)C)cc1 [Compound 24, N-(tert-Butyl)-C-[4-(ethylsulfamoyl)phenyl]nitrone]

- EC50 [1]: 100 to 500 µM
Compound: CN(C)C(=O)c1ccccc1/C=[N+](\[O-])C(C)(C)C [Compound 16, N-(tert-Butyl)-C-[2-(N,N-dimethylcarbamoyl)phenyl]nitrone]

- EC50 [1]: 100 to 500 µM
Compound: COC(=O)c1c(/C=[N+](\[O-])C2CCCCC2)cc(OC)cc1OC [Compound 5, N-Cyclohexyl-C-[2-(methoxycarbonyl)-3,5-dimethoxyphenyl]-nitrone]

- EC50 [1]: 500 to 1000 µM
Compound: COC(=O)c1ccccc1/C=[N+](\[O-])C(C)(C)C [Compound 1, N-(tert-Butyl)-C[2-(methoxycarbonyl)phenyl]nitrone]

- EC50 [1]: 10 to 100 µM
Compound: O=C(O)c1ccccc1/C=[N+](\[O-])Cc1ccccc1 [Compound 9, N-Benzyl-C-(2-carboxyphenyl)nitrone]

- EC50 [1]: < 10 µM
Compound: Cc1c(C)c2c(c(C)c1O)CCC(C)(C(=O)O)O2 (stereo not shown) [Trolox, 6-hydroxy-2,5,7,8-tetramethylchromane-2-carboxylic acid, reference compound]

- EC50 [1]: 10 to 100 µM
Compound: COc1cc(/C=[N+](\[O-])C2CCCCC2)c(C(=O)O)c(OC)c1 [Compound 11, N-Cyclohexyl-C-(2-carboxy-3,5-dimethoxyphenyl)nitrone]

- EC50 [1]: 10 to 100 µM
Compound: O=C(O)c1ccccc1/C=[N+](\[O-])C1CCCCC1 [Compound 8, N-Cyclohexyl-C-(2-carboxyphenyl)nitrone]

- EC50 [1]: > 1000 µM
Compound: COC(=O)c1ccccc1/C=[N+](\[O-])C1CCCCC1 [Compound 2, N-Cyclohexyl-C-[2-(methoxycarbonyl)phenyl]nitrone]

From patent US20100168112A1, “2-Substituted and 4-substituted aryl nitrone compounds” (RENOVIS, INC., priority 2004, published 2010)
